Measurements taken from paper PMC11873239, “A covalent chemical probe for Chikungunya nsP2 cysteine protease with antialphaviral activity and proteome-wide selectivity” (Scientific Reports, 2025).
Where two headings read alike, the source gives them in different places.

Columns and labels:
EEEV-nLuc replicon [1] = details: read-out: IC50 (EEEV-nLuc replicon)
[2] = system: 20 human cysteine proteases and three viral cysteine proteases
EEEV-nLuc replicon [3] = assay: microbe, parasite or virus in culture; details: Eastern equine encephalitis virus, Fibroblast, in Homo sapiens, 24 h, read-out: IC50 (EEEV-nLuc replicon)
CHIKV nsP2pro = CHIKV nsP2pro (Chikungunya virus, UniProt F2YI08); details: read-out: IC50 (CHIKV nsP2pro inhibition); cited from earlier work

Compound	IC50 (EEEV-nLuc replicon [1])	inhibition across cysteine protease panel [2]	IC50 (EEEV-nLuc replicon [3])	IC50 (CHIKV nsP2pro)
CCOc1ccccc1-c1cc(C(=O)NC/C=C/S(C)(=O)=O)on1 [Compound 3, (E)−3-(2-ethoxyphenyl)-N-(3-(methylsulfonyl)allyl)isoxazole-5-carboxamide]	930 nM	no significant inhibition	930 nM	
CCOc1ccccc1-c1cc2n(n1)C(CS(C)(=O)=O)CNC2=O (stereo not shown) [Compound 2]				> 40 µM
